Experimental data reported in US8889411B2, “Modulation of stem and progenitor cell differentiation, assays, and uses thereof” (Anthrogenesis Corporation, priority 2002, dated 2014).

Legend:
[1] = tested on: Bone marrow and cord blood CD34+ progenitor cells; experiment: Differentiation of CD34+ progenitor cells into dendritic cells, cell surface phenotype by flow cytometry; format: cell-based, human; set-up: key to Cell Population CD15+ / Cell Population CD34+ CD38− / Cell Population CD34− CD38+ / Cell Population CD1a+ CD14− / Cell Population CD1a− CD14+: ↑: up arrow indicates an increase in the cell population; ↓: down arrow indicates a decrease
Description: Bone marrow and cord blood CD34^+ progenitor cells were obtained from Clonetics and cultured in Iscove's MDM with BIT 95000 (StemCell Technologies) in the presence of SCF, Flt-3L, GM-CSF and TNF-α for 6 days, and then in the presence of GM-CSF and TNF-α for 6 additional days.
Analysis of cell surface phenotype: Cells were processed for double staining (30 min at 4° C.) at day 6 and day 12 using FITC and PE conjugated mAbs. Antibodies used were from BD Pharmingen: CD34 (PE), CD38 (FITC), CD33 (FITC), CD1a (FITC), CD86 (PE), CD14 (PE), CD83 (PE), CD54 (PE), CD11b (PE), CD11c (PE), HLA-DR (PE), CD15 (FITC), and CD133 (PE) from Miltenyi. Fluorescence analysis was performed on a FACScan flow cytometer after acquisition of 10,000 events (Coulter). Results presented are representative of four independent experiments.
The methodology described above, i.e., the examination of the effect of IMiDs such as ACTIMID™ on the differentiation on early progenitor cells, such as CD34^+ cells, can be applied to any compound of interest, the effect of which on differentiation is desired to be known. As an example of the extension of this assay method to other compounds, we compared the effect of retinoic acid (ATRA) and aspirin to that of ACTIMID™ on the differentiation of CD34^+ cells toward the DC lineage versus the control (DMSO-treated) cells. Retinoic acid was studied because of its known effect on cellular proliferation and differentiation, its therapeutic use in some cancer, and its known teratogenic effect. Conversely, we studied the effect of aspirin because it is a commonly-used anti-inflammatory drug with no immunomodulatory properties. The results at day 6 of CD34^+ progenitors cells cultured in the presence of SCF, Flt-3L, GM-CSF and TNF-α, with or without compound for a period of 6 days, are presented below in Table 2 (up arrow indicates an increase in the cell population; down arrow indicates a decrease).

[2] = tested on: Purified human cord blood CD34+ cells; experiment: Monocyte production: CD34/CD14 staining of cord blood CD34+ cells cultured 14 days with cytokines; format: cell-based
Description: Purified human cord blood CD34+ cells (greater than 90% CD34+) were cultured in 20% FCS IMDM medium supplemented with cytokines (IL3, IL6, G-CSF, KL and Epo) at 4×10^4 cells/ml for 14 days at 37° C. in a humidified 5% CO2 incubator. The experimental groups consisted of a group in which (i) no DMSO or chemical compounds were added (“None”), (ii) DMSO only, (iii) Thalidomide dissolved in DMSO, (iv) ACTIMID™ dissolved in DMSO, and (v) REVIMID™ dissolved in DMSO. Aliquots of cells were harvested and stained with CD34-PE conjugated monoclonal antibody and CD14-FITC conjugated monoclonal antibody.

[3] = tested on: Human Cord Blood MNC Cells; experiment: FACS analysis of cryopreserved and thawed cord blood MNCs after 1 week of culture with cytokines; format: cell-based; settings: 5 μg in 1.7 μl DMSO, average +/− SD of three wells
Description: Cord blood MNCs that had been cryopreserved and thawed using standard methods were isolated by standard Ficoll separation method and cultured in 24 well-plate at 0.5×10^6 cells/ml in 20% FCS-IMDM with cytokines (1L6, KL and G-CSF 10 ng/ml each) in triplicates. The experimental groups were None (cytokines only), DMSO (1.7 μl), ACTIMID™ (5.0 μg in 1.7 μl DMSO), REVIMID™ (5 μg in 1.7 μl DMSO). The cultured cells were harvested and analyzed by FACS staining after 1 week of culture. The data are expressed as an average +/− SD from three independent wells.

[4] = tested on: Murine Sca+Lin− hematopoietic progenitor cells; experiment: Generation of murine dendritic cells from bone marrow Sca+Lin− progenitors, cell surface phenotype; format: cell-based, mouse (C57BL/6)
Text: Mouse bone marrow from inbred C57BL/6 mice was obtained from Clonetics. Hematopoietic Sca+Lin− progenitors were enriched using SpinSep murine progenitor enrichment cocktail (StemCell Technologies) and cultured in Iscove's MDM with BIT 95000 (StemCell Technologies) in the presence of murine growth factors SCF, Flt3L, GM-CSF and M-CSF for 9 days, to promote expansion of Sca+ cells and a DC precursor phenotype and then in the presence of GM-CSF and TNF-α for 3 additional days to drive the cells to an immature DC phenotype. Enriched Sca+Lin− cells were cultured in the presence of DMSO (0.1%), ACTIMID™ at 10 μM or all-trans retinoic acid (ATRA) (ICN Biomedicals) at 10 μM from day 0. Compounds were added to cells at day 0 and day 9.
Analysis of Murine cell surface phenotype: Murine cells were processed for double staining (14 min at RT) at day 9 and day 12; using FITC and PE conjugated mAbs. Antibodies used were from BD Pharmingen: Sea (PE), CD11b (FITC), Gr-1 (FITC), CD86 (PE), CD14 (PE), CD80 (PE), I-A^b (PE), CD40 (PE) and CD32.1/16.1 (FITC) from Miltenyi. Fluorescence analysis was performed on a FACScan flow cytometer (Coulter) after acquisition of 10,000 events.

[5] = Day 12, compound from day 6 to day 12
[6] = day 6, SCF, Flt-3L, GM-CSF and TNF-α, versus DMSO-treated control
[7] = 10 μM, added at day 0 and day 9

Nc1cccc2c1C(=O)N(C1CCC(=O)NC1=O)C2=O (stereo not drawn) [ACTIMID™, 4-(Amino)-2-(2,6-dioxo(3-piperidyl))-isoindoline-1,3-dione]
toxic effects on CD34+ cells [1]: no toxic effects
CD34+CD38− population ([1]; 1 μM, day 1 to day 12): increased
acquisition of the DC phenotype ([1]; 1 μM, day 1 to day 12): inhibited
expression of co-stimulatory molecules (CD86, CD80) at day 12 ([1]; 1 μM, day 1 to day 12): decreased expression
expression of the CD54bright population ([1]; 1 μM, day 12): decreased expression
expression of the CD54dim population ([1]; 1 μM, day 12): increased expression
generation of CD14+CD1a− cells ([1]; 1 μM, from day 1): decreased
generation of CD1a+ cells at day 6 ([1]; 1 μM, from day 1, particularly CD86+CD1a+ cells): almost completely prevented
expression of the CD15 surface molecule (granulocytic marker) ([1]; 12 days in the presence of compound, FIG. 22): increased
cells' ability to proliferate ([1]; CD34+ cells): not to impair
CD1a+ [1, 5]: 11.5%
CD14+ [1, 5]: 8.0%
CD80+ [1, 5]: 13.8%
CD86+ [1, 5]: 18.5%
CD11c+CD15− population ([1]; FIG. 19B): decrease
CD11c−CD15+ granulocytic population ([1]; FIG. 19B): increase
Cell Population CD1a+ CD14− [1, 6]: ↓
Cell Population CD1a− CD14+ [1, 6]: ↓
Cell Population CD15+ [1, 6]: ↑
Cell Population CD34+ CD38− [1, 6]: ↑
Cell Population CD34− CD38+ [1, 6]: ↓
concentration at which increase in CD34+CD38− cells and block in myeloid DC progenitors reached a maximum ([1]; dose dependant, day 0 to day 6, FIG. 17): 1 µM
culture time with compound needed for interference with the CD34 differentiation pathway ([1]; effect reversible, FIG. 18): at least 3 days
expression of CD133 ([1]; multiple doses): increases
increase in the CD34+ population ([1]; multiple doses between days 0 and 6): intensified the increase
expression of HLA-DR molecules ([1]; treated CD34+ progenitors, day 12): reduced
percentage of monocyte lineage cells ([2]; 5 μg/ml, compared to control, FIG. 13): increase
percentage of CD34+ cells of the total cells ([2]; 14 days, IL3, IL6, G-CSF, KL and Epo, compound dissolved in DMSO): 18.7%
production of monocytes (CD14+ cells) ([2]; 14 days, relative to DMSO-treated group): overcome
CD34(%) [3]: 3.31 +/− 0.64%
CD34+CD38−(%) [3]: 1.70 +/− 0.22%
CXCR4+CD45+(%) [3]: 2.9 +/− 0.5%
CXCR4+CD45−(%) [3]: 4.27 +/− 0.23%
Total CD34+ cells [3]: 7800 +/− 2600
Total cells (1 × 10^6) [3]: 0.223 +/− 0.06 1 × 10^6
cell surface marker expression by day 9 ([4]; 10 μM from day 0): no significant effect
CD11b expression by day 12 [4, 7]: upregulation
CD86 and bright I-A^b expression by day 12 [4, 7]: downregulation
expression of CD40 and CD80 ([4]; 10 μM, not shown): no effects
